According to PubChem BioAssay (NCI):
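48-hour exposure; five concentrations; linearly interpolated endpoints. GI50: concentration for 50% inhibition of growth. Definition used: TGI = concentration required for complete inhibition of growth.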

Legend:
Test in all cases: DTP human tumour cell line panel, 48 h
[1] = tested on: CCRF-CEM leukemia
[2] = tested on: M14 melanoma
[3] = tested on: SK-OV-3 ovarian
[4] = tested on: HS 578T breast
[5] = tested on: MALME-3M melanoma
[6] = tested on: SF-295 CNS
[7] = tested on: CAKI-1 renal
[8] = tested on: SK-MEL-2 melanoma
[9] = tested on: OVCAR-4 ovarian
[10] = tested on: UO-31 renal
[11] = tested on: NCI-H23 lung
[12] = tested on: HT29 colon
[13] = tested on: NCI/ADR-RES ovarian
[14] = tested on: T-47D breast
[15] = tested on: SK-MEL-28 melanoma
[16] = tested on: MDA-MB-435
[17] = tested on: 786-0 renal
[18] = tested on: ACHN renal
[19] = tested on: SN12C renal
[20] = tested on: SF-268 CNS
[21] = tested on: HCT-116 colon
[22] = tested on: UACC-257 melanoma
[23] = tested on: NCI-H460 lung
[24] = tested on: U251 CNS
[25] = tested on: IGROV1 ovarian
[26] = tested on: SK-MEL-5 melanoma
[27] = tested on: HCT-15 colon
[28] = tested on: A498 renal
[29] = tested on: OVCAR-8 ovarian
[30] = tested on: SNB-75 CNS
[31] = tested on: COLO 205 colon
[32] = tested on: MDA-MB-231 breast
[33] = tested on: NCI-H522 lung
[34] = tested on: LOX IMVI melanoma
[35] = tested on: SW-620 colon
[36] = tested on: TK-10 renal
[37] = tested on: HL-60(TB) leukemia
[38] = tested on: PC-3 prostate
[39] = tested on: HCC-2998 colon
[40] = tested on: A549 NSCLC
[41] = tested on: EKVX NSCLC
[42] = tested on: OVCAR-3 ovarian
[43] = tested on: HOP-62 NSCLC
[44] = tested on: SNB-19 CNS
[45] = tested on: BT-549 breast
[46] = tested on: DU-145 prostate
[47] = tested on: SR leukemia
[48] = tested on: SF-539 CNS
[49] = tested on: RPMI-8226 leukemia
[50] = tested on: K-562 leukemia
[51] = tested on: KM12 colon
[52] = tested on: UACC-62 melanoma
[53] = tested on: OVCAR-5 ovarian
[54] = tested on: NCI-H226 lung
[55] = tested on: MCF7 breast
[56] = tested on: RXF 393 renal

## C[C@@]1(C(=O)O)CCC[C@]2(C)C1CC[C@@]13C[C@@](O)(CC[C@]12O)[C@@]1(CO1)C3 (stereo partly specified)
[1]
  GI50: > 100 µM
  TGI: > 100 µM
[2]
  GI50: > 100 µM
  TGI: > 100 µM
[3]
  GI50: > 100 µM
  TGI: > 100 µM
[4]
  GI50: > 100 µM
  TGI: > 100 µM
[5]
  GI50: > 100 µM
  TGI: > 100 µM
[6]
  GI50: > 100 µM
  TGI: > 100 µM
[7]
  GI50: > 100 µM
  TGI: > 100 µM
[8]
  GI50: > 100 µM
  TGI: > 100 µM
[9]
  GI50: > 100 µM
  TGI: > 100 µM
[10]
  GI50: > 100 µM
  TGI: > 100 µM
[11]
  GI50: > 100 µM
  TGI: > 100 µM
[12]
  GI50: > 100 µM
  TGI: > 100 µM
[13]
  GI50: > 100 µM
  TGI: > 100 µM
[14]
  GI50: > 100 µM
  TGI: > 100 µM
[15]
  GI50: > 100 µM
  TGI: > 100 µM
[16]
  GI50: > 100 µM
  TGI: > 100 µM
[17]
  GI50: > 100 µM
  TGI: > 100 µM
[18]
  GI50: > 100 µM
  TGI: > 100 µM
[19]
  GI50: > 100 µM
  TGI: > 100 µM
[20]
  GI50: > 100 µM
  TGI: > 100 µM
[21]
  GI50: > 100 µM
  TGI: > 100 µM
[22]
  GI50: > 100 µM
  TGI: > 100 µM
[23]
  GI50: > 100 µM
  TGI: > 100 µM
[24]
  GI50: > 100 µM
  TGI: > 100 µM
[25]
  GI50: > 100 µM
  TGI: > 100 µM
[26]
  GI50: > 100 µM
  TGI: > 100 µM
[27]
  GI50: > 100 µM
  TGI: > 100 µM
[28]
  GI50: > 100 µM
  TGI: > 100 µM
[29]
  GI50: > 100 µM
  TGI: > 100 µM
[30]
  GI50: > 100 µM
  TGI: > 100 µM
[31]
  GI50: > 100 µM
  TGI: > 100 µM
[32]
  GI50: > 100 µM
  TGI: > 100 µM
[33]
  GI50: > 100 µM
  TGI: > 100 µM
[34]
  GI50: > 100 µM
  TGI: > 100 µM
[35]
  GI50: > 100 µM
  TGI: > 100 µM
[36]
  GI50: > 100 µM
  TGI: > 100 µM
[37]
  GI50: > 100 µM
  TGI: > 100 µM
[38]
  GI50: > 100 µM
  TGI: > 100 µM
[39]
  GI50: > 100 µM
  TGI: > 100 µM
[40]
  GI50: > 100 µM
  TGI: > 100 µM
[41]
  GI50: > 100 µM
  TGI: > 100 µM
[42]
  GI50: > 100 µM
  TGI: > 100 µM
[43]
  GI50: > 100 µM
  TGI: > 100 µM
[44]
  GI50: > 100 µM
  TGI: > 100 µM
[45]
  GI50: > 100 µM
  TGI: > 100 µM
[46]
  GI50: > 100 µM
  TGI: > 100 µM
[47]
  TGI: > 100 µM
[48]
  GI50: > 100 µM
  TGI: > 100 µM
[49]
  GI50: > 100 µM
  TGI: > 100 µM
[50]
  GI50: > 100 µM
  TGI: > 100 µM
[51]
  GI50: > 100 µM
  TGI: > 100 µM
[52]
  GI50: > 100 µM
  TGI: > 100 µM
[53]
  GI50: > 100 µM
  TGI: > 100 µM
[54]
  GI50: > 100 µM
  TGI: > 100 µM
[55]
  GI50: > 100 µM
  TGI: > 100 µM
[56]
  GI50: > 100 µM
  TGI: > 100 µM
